Experimental data reported in US20200011856A1, “Method for Determining the Effectiveness of Treatment for the Prevention of Heartworm Disease” (priority 2017, published 2020).
Several values for one entry are separate records, joined by “and”; a condition that tells them apart may be missing. Equal entries are not always repeated.

How the values were obtained:
Dirofilaria immitis = assay: D. immitis L3 infection of NSG mice (FR3 Missouri strain or strain not stated), treatment, recovery and count of worms at necropsy; assay type: in vivo; conditions: for % Rec (percent of the original 50 Di recovered): 1 mg/kg
[1] = system: Dirofilaria immitis (Merial worms, UC strain); assay: D. immitis L3 infection of NSG mice with Merial worms / UC strain, treatment, recovery and count of worms; assay type: in vivo
[2] = system: Strongyloides stercoralis; assay: Strongyloides stercoralis L3 infection of NSG mice with or without MPA, treatment, counts of adult worms, L1 and L3; conditions: 6 weeks post-injection; for Adult S. stercoralis recovery counts (individual mice) / Adult S. stercoralis recovery counts, mean / L1 S. stercoralis recovery counts (individual mice) / L1 S. stercoralis recovery counts, mean / L3 S. stercoralis recovery counts (individual mice) / L3 S. stercoralis recovery counts, mean: 5000 L3 s.c.
Excerpt: NSG mice infected by subcutaneous injection with 5000 S. stercoralis L3 larvae, either with or without MPA. […] Adult worms, L1 larvae, or L3 larvae were counted in the mice at 6 weeks post-injection.

[3] = IVM Control: 3 mg/kg IVM days 1, 15, 30, without MPA
[4] = IVM/MPA: 3 mg/kg IVM days 1, 15, 30, with MPA (hyperinfection)

With `CC[C@H](C)[C@H]1O[C@]2(CC[C@@H]1C)C[C@@H]1C[C@@H](C/C=C(\C)[C@@H](O[C@H]3C[C@H](OC)[C@@H](O[C@H]4C[C@H](OC)[C@@H](O)[C@H](C)O4)[C@H](C)O3)[C@@H](C)/C=C/C=C3\CO[C@@H]4[C@H](O)C(C)=C[C@@H](C(=O)O1)[C@]34O)O2` [IVM, ivermectin] the “% Rec, Mean” value (Dirofilaria immitis; in vivo) was 1% and 4% and 2%, the “Mean % Rec” value (Dirofilaria immitis; in vivo) was 6% and the “Mean Survival” value (Dirofilaria immitis; in vivo) was 3. For the same compound, the “HW parasite load (normalized percent larva recovery, FIG. 2)” value (Dirofilaria immitis; in vivo, po, 3 mg/kg) was “significantly reduced HW parasite load”, the “% Red” value ([1]; in vivo, 3 mg/kg) was 47% and the “Mean % Rec” value ([1]; in vivo, 3 mg/kg) was 18%. For the same compound, the “Mean Survival” value ([1]; in vivo, 3 mg/kg) was 9, the “Adult S. stercoralis recovery counts (individual mice)” value [2, 3] was 0 and the “Adult S. stercoralis recovery counts, mean” value [2, 3] was 0. For the same compound, the “L1 S. stercoralis recovery counts (individual mice)” value [2, 3] was 0, the “L1 S. stercoralis recovery counts, mean” value [2, 3] was 0 and the “L3 S. stercoralis recovery counts (individual mice)” value [2, 3] was 6 and 9 and 26 and 210 and 2. For the same compound, the “L3 S. stercoralis recovery counts, mean” value [2, 3] was 51, the “Adult S. stercoralis recovery counts (individual mice)” value [2, 4] was 0 and the “Adult S. stercoralis recovery counts, mean” value [2, 4] was 0. For the same compound, the “L1 S. stercoralis recovery counts (individual mice)” value [2, 4] was 0, the “L1 S. stercoralis recovery counts, mean” value [2, 4] was 0 and the “L3 S. stercoralis recovery counts (individual mice)” value [2, 4] was 19 and 24 and 4 and 13 and 25 and 16 and 40 and 38. The “L3 S. stercoralis recovery counts, mean” value [2, 4] was 22 and the “Circulating L3” value ([2]; NSG mice, 5000 S. stercoralis L3 SC, with or without MPA, 3 mg/kg on days 1, 15, and 30) was “reduced the circulating L3”.

With `CC(C)C[C@H]1C(=O)O[C@H](C)C(=O)N(C)[C@@H](CC(C)(C)F)C(=O)O[C@H](Cc2ccc(C3CCOCC3)cc2)C(=O)N(C)[C@@H](CC(C)C)C(=O)O[C@H](C)C(=O)N(C)[C@@H](CC(C)(C)F)C(=O)O[C@H](Cc2ccc(C3CCOCC3)cc2)C(=O)N1C` [compound 8800] the “% Red” value (Dirofilaria immitis; 8800 5 mg/kg Days 1, 15, 30, 50 Di L3 per NSG mouse, Table 14, vs Control) was 100%, the “% Rec, Mean” value (Dirofilaria immitis; 8800 5 mg/kg Days 1, 15, 30, 50 Di L3 per NSG mouse, recovery Days 41 to 42, Table 14, group mean) was 0% and the “% Rec” value (Dirofilaria immitis; 8800 5 mg/kg Days 1, 15, 30, 50 Di L3 per NSG mouse, recovery Days 41 to 42, Table 14, individual mice) was 0%. For the same compound, the “% Red” value (Dirofilaria immitis; NSG mice, 50 Di L3, 2x (1 mg/kg) at Days 1 and 30, recovery Days 41 to 43) was 38%, the “% Red” value (Dirofilaria immitis; NSG mice, 50 Di L3 Day 0, 1 mg/kg EMO or 8800 on Days 30 and 60, recovery Days 83 and 84) was 43% and the “% Red (percent reduction in percent of Di recovered compared to control)” value (Dirofilaria immitis; NSG mice, 50 Di L3 Day 0, 1 mg/kg on Day 30, recovery Days 41 to 43) was 23%. For the same compound, the “% Red” value (Dirofilaria immitis; Table 9, NSG mice, 50 Di L3, 1 mg/kg on Days 1, 15, and 30, recovery Days 41 to 43) was 73%, the “Mean % Rec” value (Dirofilaria immitis; Table 9, group mean, NSG mice, 50 Di L3, 1 mg/kg on Days 1, 15, and 30, recovery Days 41 to 43) was 9% and the “% Rec” value (Dirofilaria immitis; Table 9, individual mouse, NSG mice, 50 Di L3, 1 mg/kg on Days 1, 15, and 30, recovery Days 41 to 43) was 8% (3×) and 10% and 28% and 16% and 0%. For the same compound, the “% Red” value (Dirofilaria immitis; Table 11, NSG mice, 50 Di L3, 0.3 mg/kg on Days 1, 15, and 30, recovery Days 41 to 42) was 0%, the “% Red” value (Dirofilaria immitis; Table 11, NSG mice, 50 Di L3, 1 mg/kg on Days 1, 15, and 30, recovery Days 41 to 42) was 71% and the “Mean % Rec” value (Dirofilaria immitis; Table 11, group mean, NSG mice, 50 Di L3, 0.3 mg/kg on Days 1, 15, and 30, recovery Days 41 to 42) was 26%. The “Mean % Rec” value (Dirofilaria immitis; Table 11, group mean, NSG mice, 50 Di L3, 1 mg/kg on Days 1, 15, and 30, recovery Days 41 to 42) was 7%, the “% Rec” value (Dirofilaria immitis; Table 11, individual mouse, NSG mice, 50 Di L3, 0.3 mg/kg on Days 1, 15, and 30, recovery Days 41 to 42) was 16% (2×) and 36% (3×) and 14% and the “% Rec” value (Dirofilaria immitis; Table 11, individual mouse, NSG mice, 50 Di L3, 1 mg/kg on Days 1, 15, and 30, recovery Days 41 to 42) was 4% (2×) and 2% and 16% and 8% and 6%. The “Mean % Rec” value (Dirofilaria immitis; group mean, NSG mice, 50 Di L3, 2x (1 mg/kg) at Days 1 and 30, recovery Days 41 to 43) was 21%, the “Mean % Rec” value (Dirofilaria immitis; group mean, NSG mice, 50 Di L3 Day 0, 1 mg/kg EMO or 8800 on Days 30 and 60, recovery Days 83 and 84) was 8% and the “Mean % Rec” value (Dirofilaria immitis; group mean, NSG mice, 50 Di L3 Day 0, 1 mg/kg on Day 30, recovery Days 41 to 43) was 31%. The Survival (Dirofilaria immitis; in vivo, 5 mg/kg) was 0, the “Survival, Mean” value (Dirofilaria immitis; in vivo, 5 mg/kg) was 0 and the “% Rec” value (Dirofilaria immitis; individual mouse, NSG mice, 50 Di L3, 2x (1 mg/kg) at Days 1 and 30, recovery Days 41 to 43) was 22% and 16% and 12% and 26% and 20% and 32%. The “% Rec (percent of the original 50 Di recovered)” value (Dirofilaria immitis; individual mouse, NSG mice, 50 Di L3 Day 0, 1 mg/kg EMO or 8800 on Days 30 and 60, recovery Days 83 and 84) was 14% and 4% (2×) and 10% and 12% and 6%, the “% Rec (percent of the original 50 Di recovered)” value (Dirofilaria immitis; individual mouse, NSG mice, 50 Di L3 Day 0, 1 mg/kg on Day 30, recovery Days 41 to 43) was 24% (3×) and 36% and 28% and 52% and the “% Rec, Mean” value ([1]; 8800 1 mg/kg Days 1, 15, 30, 50 Di L3 (UC Strain) per NSG mouse, recovery Days 41 to 43, group mean) was 10%. For the same compound, the “% Rec” value ([1]; 8800 1 mg/kg Days 1, 15, 30, 50 Di L3 (UC Strain) per NSG mouse, recovery Days 41 to 43, individual mice, 1 mg/kg) was 10% (2×) and 14% and 16% and 4% and 6% and 12%, the “% Red” value ([1]; 8800 1 mg/kg Days 1, 15, 30, 50 Di L3 (UC Strain) per NSG mouse, vs Control) was 73% and the “% Rec, Mean” value ([1]; 8800 2 mg/kg Days 1, 15, 30, 50 Di L3 (UC Strain) per NSG mouse, recovery Days 41 to 43, group mean) was 2%. For the same compound, the “% Rec” value ([1]; 8800 2 mg/kg Days 1, 15, 30, 50 Di L3 (UC Strain) per NSG mouse, recovery Days 41 to 43, individual mice, 2 mg/kg) was 2% (3×) and 0% (2×) and 6% and 4%, the “% Red” value ([1]; 8800 2 mg/kg Days 1, 15, 30, 50 Di L3 (UC Strain) per NSG mouse, vs Control) was 94% and the “% Red” value ([1]; NSG mice, 50 Di L3 Merial worms, 1 mg/kg on Days 1, 15, and 30, recovery Days 41 to 43) was 65%. The “% Red” value ([1]; NSG mice, 50 Di L3 UC strain, High Dose 2 mg/kg on Days 1, 15, and 30, recovery Days 41 and 42) was 94%, the “% Red” value ([1]; NSG mice, 50 Di L3 UC strain, Normal Dose 1 mg/kg on Days 1, 15, and 30, recovery Days 41 and 42) was 81% and the “Mean % Rec” value ([1]; group mean, NSG mice, 50 Di L3 Merial worms, 1 mg/kg on Days 1, 15, and 30, recovery Days 41 to 43) was 12%. The “Mean % Rec” value ([1]; group mean, NSG mice, 50 Di L3 UC strain, High Dose 2 mg/kg on Days 1, 15, and 30, recovery Days 41 and 42) was 2%, the “Mean % Rec” value ([1]; group mean, NSG mice, 50 Di L3 UC strain, Normal Dose 1 mg/kg on Days 1, 15, and 30, recovery Days 41 and 42) was 7% and the “Mean Survival” value ([1]; in vivo, 1 mg/kg) was 6 and 4. For the same compound, the “Survival, Mean” value ([1]; in vivo, 1 mg/kg) was 5, the “Mean Survival” value ([1]; in vivo, 2 mg/kg) was 1 and the “Survival, Mean” value ([1]; in vivo, 2 mg/kg) was 1. For the same compound, the “% Rec” value ([1]; individual mouse, NSG mice, 50 Di L3 Merial worms, 1 mg/kg on Days 1, 15, and 30, recovery Days 41 to 43, 1 mg/kg) was 0% (2×) and 12% (3×) and 8% and 32% and 16%, the “% Rec” value ([1]; individual mouse, NSG mice, 50 Di L3 UC strain, High Dose 2 mg/kg on Days 1, 15, and 30, recovery Days 41 and 42, 2 mg/kg) was 2% (3×) and 0% (3×) and 8% and the “% Rec” value ([1]; individual mouse, NSG mice, 50 Di L3 UC strain, Normal Dose 1 mg/kg on Days 1, 15, and 30, recovery Days 41 and 42, 1 mg/kg) was 6% (2×) and 4% and 2% and 8% and 10% and 14%.
